Measured values: the supplement of paper PMC10307832

Key:
Test in all cases: relative viability (nuclei count vs DMSO), 5 days (fraction); higher = more cells survive
Pazopanib + Lapatinib = compound: Cc1ccc(Nc2nccc(N(C)c3ccc4c(C)n(C)nc4c3)n2)cc1S(N)(=O)=O [Pazopanib] + CS(=O)(=O)CCNCc1ccc(-c2ccc3ncnc(Nc4ccc(OCc5cccc(F)c5)c(Cl)c4)c3c2)o1 [Lapatinib] (partner 2 µM)
Method in brief: (§1)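 Relative viability was taken as the ratio of nuclei in treated wells to nuclei in vehicle wells. Lung cancer cell lines in 1536-well plates received compounds by pin tool one day after seeding, either one drug alone or a fixed anchor-drug dose plus five library-drug doses (not always all listed) in √10 steps. Nuclei were counted on 4× images after 5 days of treatment, and values are medians of duplicate plates.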

Ponatinib + Vorinostat = compound: Cc1ccc(C(=O)Nc2ccc(CN3CCN(C)CC3)c(C(F)(F)F)c2)cc1C#Cc1cnc2cccnn12 [Ponatinib] + O=C(CCCCCCC(=O)Nc1ccccc1)NO [Vorinostat] (partner 1 µM)
Method in brief: as §1

Pazopanib + Vorinostat = compound: Cc1ccc(Nc2nccc(N(C)c3ccc4c(C)n(C)nc4c3)n2)cc1S(N)(=O)=O [Pazopanib] + O=C(CCCCCCC(=O)Nc1ccccc1)NO [Vorinostat] (partner 1 µM)
Method in brief: as §1

Ponatinib + Phenformin = compound: Cc1ccc(C(=O)Nc2ccc(CN3CCN(C)CC3)c(C(F)(F)F)c2)cc1C#Cc1cnc2cccnn12 [Ponatinib] + N=C(N)NC(=N)NCCc1ccccc1 [Phenformin] (partner 250 µM)
Method in brief: as §1

Cell Line | relative viability (Pazopanib + Lapatinib; first compound 0.01 µM) | relative viability (Pazopanib + Lapatinib; first compound 0.1 µM) | relative viability (Pazopanib + Lapatinib; first compound 0.3162 µM) | relative viability (Pazopanib + Lapatinib; first compound 1 µM) | relative viability (Ponatinib + Vorinostat; first compound 0.002 µM) | relative viability (Ponatinib + Vorinostat; first compound 0.006325 µM) | relative viability (Ponatinib + Vorinostat; first compound 0.06325 µM) | relative viability (Ponatinib + Vorinostat; first compound 0.2 µM) | relative viability (Pazopanib + Vorinostat; first compound 0.03162 µM) | relative viability (Pazopanib + Vorinostat; first compound 0.1 µM) | relative viability (Pazopanib + Vorinostat; first compound 0.3162 µM) | relative viability (Pazopanib + Vorinostat; first compound 1 µM) | relative viability (Ponatinib + Phenformin; first compound 0.002 µM) | relative viability (Ponatinib + Phenformin; first compound 0.006325 µM) | relative viability (Ponatinib + Phenformin; first compound 0.06325 µM) | relative viability (Ponatinib + Phenformin; first compound 0.2 µM) | relative viability (Pazopanib + Vorinostat; first compound 0.01 µM) | relative viability (Pazopanib + Lapatinib; first compound 0.03162 µM)
IA-LM | 0.703 | 0.944 | 0.809 | 0.52 | 0.913 | 0.875 | 0.861 | 0.783 | 0.977 | 1.1 | 0.964 | 0.945 |  |  |  |  |  | 
NCI-H441 |  |  |  |  | 0.647 | 0.675 | 0.822 | 0.757 | 1.06 | 0.865 | 0.838 | 0.645 | 0.818 | 0.866 | 0.941 | 0.697 | 0.736 | 
NCI-H322M | 0.587 | 0.653 | 0.632 | 0.618 | 0.882 | 0.823 | 0.833 | 0.741 | 0.989 | 0.765 | 0.948 | 0.995 | 0.746 | 0.734 | 0.799 | 0.728 | 0.916 | 0.645
NCI-H2347 | 0.86 | 1.08 | 0.989 | 1.02 | 0.496 | 0.554 | 0.643 | 0.504 | 0.593 | 0.736 | 0.587 | 0.83 | 0.34 | 0.393 | 0.38 | 0.34 | 0.522 | 0.971
COR-L23 | 0.966 | 1.06 | 1.2 | 1 | 0.31 | 0.403 | 0.52 | 0.462 | 0.5 | 0.424 | 0.508 | 0.514 | 0.382 | 0.453 | 0.419 | 0.436 | 0.446 | 1.07
NCI-H2087 | 1.09 | 0.99 | 1.15 | 1.02 | 0.635 | 0.549 | 0.366 | 0.662 | 0.642 | 0.704 | 0.733 | 0.317 | 0.517 | 0.471 | 0.493 | 0.439 | 0.945 | 0.988
LC-2-ad | 1.01 | 0.999 | 0.979 | 1.12 | 0.653 | 0.667 | 0.626 | 0.591 | 0.719 | 0.732 | 0.771 | 0.732 | 0.415 | 0.542 | 0.498 | 0.462 | 0.697 | 0.954
NCI-H1915 | 0.898 | 1.01 | 0.976 | 0.941 | 0.457 | 0.49 | 0.469 | 0.491 | 0.481 | 0.513 | 0.525 | 0.455 | 0.332 | 0.363 | 0.371 | 0.356 | 0.385 | 1.03
NCI-H1944 | 0.561 | 0.949 | 0.923 | 0.953 | 0.519 | 0.637 | 0.693 | 0.679 | 0.557 | 0.583 | 0.604 | 0.648 | 0.204 | 0.202 | 0.209 | 0.186 | 0.487 | 0.84
NCI-H2023 | 0.509 | 0.73 | 0.791 | 1.35 | 0.661 | 0.634 | 0.851 | 0.593 | 0.712 | 0.745 | 0.637 | 0.827 | 0.397 | 0.416 | 0.425 | 0.315 | 0.551 | 0.806
COR-L 105 | 0.342 | 0.386 | 0.341 | 0.401 | 0.802 | 0.953 | 0.899 | 0.837 | 0.959 | 0.765 | 0.878 | 0.882 | 0.421 | 0.479 | 0.501 | 0.466 | 0.867 | 0.414
SK-LU-1 | 0.903 | 1.18 | 0.976 | 0.871 | 0.699 | 0.76 | 0.832 | 0.702 | 0.852 | 0.755 | 0.621 | 0.861 | 0.445 | 0.469 | 0.475 | 0.328 | 0.756 | 0.942
NCI-H1792 |  | 0.918 | 0.847 | 0.823 |  |  |  |  |  |  |  |  | 0.268 | 0.22 | 0.354 | 0.205 |  | 0.863
ChaGo-K-1 |  |  |  |  | 0.699 | 0.732 | 0.664 | 0.648 | 0.772 | 0.756 | 0.757 | 0.727 | 0.423 | 0.447 | 0.477 | 0.466 | 0.743 | 
NCI-H2342 |  |  |  |  | 0.676 | 0.779 | 0.886 | 0.731 | 0.789 | 0.704 | 0.762 | 0.687 | 0.5 | 0.488 | 0.538 | 0.595 | 0.671 | 
NCI-H1299 | 0.928 | 0.969 | 1.02 | 0.894 |  |  |  |  |  |  |  |  |  |  |  |  |  | 0.962
SW 900 |  |  |  |  | 0.382 | 0.516 | 0.591 | 0.525 | 0.33 |  | 0.545 | 0.53 | 0.491 | 0.496 | 0.682 | 0.416 | 0.465 | 
NCI-H1648 |  |  |  |  | 0.381 | 0.335 | 0.455 | 0.462 |  | 0.337 | 0.535 | 0.376 |  |  |  |  |  | 
NCI-H522 |  |  |  |  | 0.853 | 0.964 | 0.95 | 0.928 | 0.874 | 0.851 | 0.922 | 1.02 | 0.697 | 0.657 | 0.653 | 0.56 | 0.603 | 
A549 | 0.967 | 1.07 | 1.1 | 0.914 |  |  |  |  |  |  |  |  | 0.161 | 0.142 | 0.142 | 0.147 |  | 0.977
NCI-H1563 | 0.75 | 0.997 | 1.09 | 1.16 |  |  |  |  |  |  |  |  | 0.587 | 0.649 | 0.655 | 0.525 |  | 1
LCLC-103H |  |  |  |  | 0.701 | 0.821 | 0.848 | 0.765 | 0.804 | 0.753 | 0.823 | 0.842 | 0.275 | 0.347 | 0.312 | 0.295 | 0.692 | 
